Assay results published in ChEMBL document CHEMBL3880402, “Inhibitors of E1 activating enzymes” (2006).

target: T1, NEDD8-activating enzyme E1 catalytic subunit (Homo sapiens, UniProt Q8TBC4); test: Inhibition of recombinant human untagged NAEalpha/N-terminal His-tagged NAEbeta expressed in Bac-to-Bac expression system using FLAG-tagged NEDD8 as substrate after 90 mins in presence of GST-tagged Ubc12 by HTRF assay
T1 sequence (Q8TBC4 whole entry): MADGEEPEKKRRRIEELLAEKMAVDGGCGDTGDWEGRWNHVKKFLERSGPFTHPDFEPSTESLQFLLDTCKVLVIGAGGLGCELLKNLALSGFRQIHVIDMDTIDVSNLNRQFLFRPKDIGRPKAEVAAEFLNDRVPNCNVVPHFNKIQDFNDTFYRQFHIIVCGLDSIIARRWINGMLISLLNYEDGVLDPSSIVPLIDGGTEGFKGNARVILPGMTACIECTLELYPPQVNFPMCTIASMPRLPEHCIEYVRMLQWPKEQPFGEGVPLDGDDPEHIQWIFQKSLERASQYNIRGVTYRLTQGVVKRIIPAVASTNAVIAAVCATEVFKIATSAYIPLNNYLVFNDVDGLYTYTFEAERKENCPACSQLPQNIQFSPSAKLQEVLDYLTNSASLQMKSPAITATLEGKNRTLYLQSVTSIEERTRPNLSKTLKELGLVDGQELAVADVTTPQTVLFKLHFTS

| Structure (SMILES) | IC50 [nM] |
| --- | --- |
| NS(=O)(=O)OC[C@H]1O[C@@H](n2cnc3c(C#Cc4ccc(F)cc4F)ncnc32)[C@H](O)[C@@H]1O | 100 to 1000 |
| NS(=O)(=O)NC[C@H]1O[C@@H](n2cnc3c(NCc4cccc5ccccc45)ncnc32)[C@H](O)[C@@H]1O | 100 to 1000 |
| NS(=O)(=O)OC[C@H]1O[C@@H](n2ccc3c(N[C@H]4CCc5ccccc54)ncnc32)[C@H](O)[C@@H]1O | 100 to 1000 |
| COc1ccccc1C#Cc1ncnc2c1ncn2[C@@H]1O[C@H](COS(N)(=O)=O)[C@@H](O)[C@H]1O | 100 to 1000 |
| NS(=O)(=O)OC[C@H]1C[C@@H](n2cnc3c(N[C@H]4CCc5ccccc54)ncnc32)C[C@@H]1O | 100 to 1000 |
| Cc1cnc(CNc2ncnc3c2ncn3[C@@H]2O[C@H](COS(N)(=O)=O)[C@@H](O)[C@H]2O)cn1 | 100 to 1000 |
| NS(=O)(=O)NC[C@H]1O[C@@H](n2cnc3c(N[C@@H](CO)c4ccccc4)ncnc32)[C@H](O)[C@@H]1O | 100 to 1000 |
| NS(=O)(=O)OC[C@@H]1C[C@@H](O)[C@H](n2cnc3c(N[C@H]4CCc5ccccc54)ncnc32)O1 | 100 to 1000 |
| CCc1ncnc2c1ncn2[C@@H]1O[C@H](COS(N)(=O)=O)[C@@H](O)[C@H]1O | 100 to 1000 |
| NS(=O)(=O)NC[C@H]1O[C@@H](n2cnc3c(N[C@@H]4c5ccccc5C[C@@H]4O)ncnc32)[C@H](O)[C@@H]1O | 100 to 1000 |
| NS(=O)(=O)OC[C@H]1O[C@@H](n2cnc3c(N[C@H]4CCc5ccccc54)nccc32)[C@H](O)[C@@H]1O | 100 to 1000 |
| NS(=O)(=O)OC[C@H]1O[C@@H](n2cnc3c(NCc4ccc5c(c4)OCO5)ncnc32)[C@H](O)[C@@H]1O | 100 to 1000 |
| NS(=O)(=O)OC[C@H]1O[C@@H](n2cnc3c(N[C@H]4CCc5ccccc54)ncnc32)[C@H](O)[C@@H]1O | 100 to 1000 |
| NS(=O)(=O)OC[C@H]1O[C@@H](n2cnc3c(CN4C(=O)c5ccccc5C4=O)ncnc32)[C@H](O)[C@@H]1O | 100 to 1000 |
| CC(=O)NCc1ccccc1CNc1ncnc2c1ncn2[C@@H]1O[C@H](COS(N)(=O)=O)[C@@H](O)[C@H]1O | 100 to 1000 |
| NS(=O)(=O)OC[C@H]1O[C@@H](n2cnc3c(CC4Cc5ccccc5C4)ncnc32)[C@H](O)[C@@H]1O | 100 to 1000 |
| NS(=O)(=O)OC[C@H]1O[C@@H](n2cnc3c(C#Cc4ccc(Cl)cc4)ncnc32)[C@H](O)[C@@H]1O | 100 to 1000 |
| NS(=O)(=O)NC[C@H]1O[C@@H](n2cnc3c(N[C@H]4CCc5ccccc54)ncnc32)[C@H](O)[C@@H]1O | 100 to 1000 |
| NS(=O)(=O)NC[C@H]1O[C@@H](n2cnc3c(NCc4cccs4)ncnc32)[C@H](O)[C@@H]1O | 100 to 1000 |
| NS(=O)(=O)OC[C@H]1O[C@@H](n2cnc3c(C#Cc4ccccc4F)ncnc32)[C@H](O)[C@@H]1O | 100 to 1000 |
| NS(=O)(=O)OC[C@H]1O[C@@H](n2cnc3c(Nc4ccc(Cl)cc4)ncnc32)[C@H](O)[C@@H]1O | 100 to 1000 |
| NS(=O)(=O)CC[C@H]1O[C@@H](n2cnc3c(NC(c4ccccc4)c4ccccc4)ncnc32)[C@H](O)[C@@H]1O | 100 to 1000 |
| NS(=O)(=O)CC[C@H]1O[C@@H](n2cnc3c(N[C@H]4CCc5ccccc54)ncnc32)[C@H](O)[C@@H]1O | 100 to 1000 |
| NS(=O)(=O)OC[C@H]1O[C@@H](n2cnc3c(NCCc4ccccc4)ncnc32)[C@H](O)[C@@H]1O | 100 to 1000 |
| NS(=O)(=O)OC[C@H]1O[C@@H](n2cnc3c(C#Cc4ccccc4)ncnc32)[C@H](O)[C@@H]1O | 100 to 1000 |
| Cc1noc(C)c1-c1ncnc2c1ncn2[C@@H]1O[C@H](COS(N)(=O)=O)[C@@H](O)[C@H]1O | 100 to 1000 |
| NS(=O)(=O)OC[C@H]1O[C@@H](n2cnc3c(NC(=O)c4ccc(F)cc4)ncnc32)[C@H](O)[C@@H]1O | 100 to 1000 |
| NS(=O)(=O)OC[C@H]1O[C@@H](n2ccc3c(NC(=O)c4ccccc4)ncnc32)C[C@@H]1O | 100 to 1000 |

The next lines start with the values.

| IC50 [nM] | Structure (SMILES) |
| --- | --- |
| 100 to 1000 | NS(=O)(=O)OC[C@H]1C[C@@H](n2cnc3c(C#Cc4ccccc4)ncnc32)[C@H](O)[C@@H]1O |
| 100 to 1000 | NS(=O)(=O)OC[C@H]1O[C@@H](n2cnc3c(CNC(=O)c4ccccc4)ncnc32)[C@H](O)[C@@H]1O |
| 100 to 1000 | NS(=O)(=O)OC[C@H]1O[C@@H](n2cnc3c(NCc4ccccc4)ncnc32)C[C@@H]1O |
| 100 to 1000 | NS(=O)(=O)OC[C@H]1O[C@@H](n2cnc3c(C#Cc4cccc(Cl)c4)ncnc32)[C@H](O)[C@@H]1O |
| 100 to 1000 | NS(=O)(=O)OC[C@H]1O[C@@H](n2cnc3c(NS(=O)(=O)c4ccccc4)ncnc32)[C@H](O)[C@@H]1O |
| 100 to 1000 | CN(c1ncnc2c1ncn2[C@@H]1O[C@H](COS(N)(=O)=O)[C@@H](O)[C@H]1O)[C@H]1CCc2ccccc21 |
| 100 to 1000 | NS(=O)(=O)OC[C@H]1O[C@@H](n2cnc3c(N[C@@H]4c5ccccc5C[C@@H]4O)ncnc32)[C@H](O)[C@@H]1O |
| 100 to 1000 | NS(=O)(=O)OC[C@H]1O[C@@H](n2cnc3c(-c4cccc(C(F)(F)F)c4)ncnc32)[C@H](O)[C@@H]1O |
| 100 to 1000 | NS(=O)(=O)OC[C@H]1O[C@@H](n2cnc3c(NCc4ccc(F)cc4)ncnc32)[C@H](O)[C@@H]1O |
| 100 to 1000 | NS(=O)(=O)OC[C@H]1O[C@@H](n2cnc3c(NCc4ccccc4)ncnc32)[C@H](O)[C@@H]1O |
| 100 to 1000 | NS(=O)(=O)OC[C@H]1O[C@@H](n2cnc3c(NCC4CCNCC4)ncnc32)[C@H](O)[C@@H]1O |
| ≤ 1000 | Cc1cnc(CNc2ncnc3c2ncn3[C@@H]2O[C@H](CNS(N)(=O)=O)[C@@H](O)[C@H]2O)cn1 |
| ≤ 1000 | NS(=O)(=O)NC[C@H]1O[C@@H](n2cnc3c(NCc4csc5ccccc45)ncnc32)[C@H](O)[C@@H]1O |
| ≤ 1000 | CC(C)Cc1ncnc2c1ncn2[C@@H]1O[C@H](COS(N)(=O)=O)[C@@H](O)[C@H]1O |
| ≤ 1000 | COCCNc1ncnc2c1ncn2[C@@H]1O[C@H](CNS(N)(=O)=O)[C@@H](O)[C@H]1O |
| ≤ 1000 | NS(=O)(=O)OC[C@H]1O[C@@H](n2ccc3c(NCc4ccccc4)nccc32)C[C@@H]1O |
| ≤ 1000 | CCc1cn([C@H]2C[C@H](O)[C@@H](COS(N)(=O)=O)O2)c2ncnc(CCc3ccccc3)c12 |
